Patent US9840478B2 (MERCK SHARP & DOHME CORP., priority 2013, dated 2017)

Test system: HIV-1 (H9IIIB strain)
Assay: Cell-based HIV infection assay using a reporter (Cell-Based), MT4-GFP cells
Conditions: Human immunodeficiency virus 1, MT4-GFP cells infected with HIV-1 H9IIIB; 50% normal human serum; mean of at least two independent experiments; read-out: Cell-based IP
Outline: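 IC50 from 4-parameter dose-response of % viral growth inhibition, using the 48 h/24 h infected-cell ratio scaled between DMSO and a protease/integrase/NNRTI triple-drug control. Assay used MT4 cells with HIV-LTR-GFP reporter, pre-infected 24 h with HIV-1 H9IIIB, in 50% normal human serum.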

Question: `C[C@H]1CNC[C@H](CCc2c(F)cccc2NC(=O)[C@@H](N)C2(c3ccc(F)c(F)c3)CCOCC2)N1S(=O)(=O)c1ccccc1` [Example 292, (2S)-2-amino-2-[4-(3,4-difluorophenyl)tetrahydro-2H-pyran-4-yl]-N-(3-fluoro-2-{2-[(2S,6S)-6-methyl-1-(phenylsulfonyl)piperazin-2-yl]ethyl}phenyl)ethanamide] was tested. Which IC50 did it give?
Answer: The IC50 was 130 nM.

Question: Which IC50 does the source give for `O=C(N[C@H](C(=O)Nc1cncc(F)c1CC[C@H]1CNCCN1S(=O)(=O)C1CC1)[C@@H](c1ccc(F)cc1)c1cc(F)cc(F)c1)C1CC1` [Example 81] here?
Answer: The IC50 was 25 nM.

Question: How did the IC50 turn out when `COC(=O)N[C@H](C(=O)Nc1cccc(F)c1CC[C@H]1CNCC(COC(C)C)N1S(=O)(=O)C1CC1)[C@@H](c1ccc(F)cc1)c1cc(F)cc(F)c1` (stereo partly drawn) [Example 237, (βS)-N-[2-(2-{(2S)-1-(cyclopropylsulfonyl)-6-[(1-methylethoxy)methyl]piperazin-2-yl}ethyl)-3-fluorophenyl]-β-(3,5-difluorophenyl)-4-fluoro-Nα-(methoxycarbonyl)-L-phenylalaninamide] was run?
Answer: Its IC50 is 30 nM.

Question: `N[C@H](C(=O)Nc1cccc(F)c1CC[C@H]1CNCCN1S(=O)(=O)c1ccccc1)[C@@H](c1ccc(Cl)cc1)c1cccc(OC(F)(F)F)c1` [Example 42, (βS)-4-chloro-N-(3-fluoro-2-{2-[(2S)-1-(phenylsulfonyl)piperazin-2-yl]ethyl}phenyl)-β-[3-(trifluoromethoxy)phenyl]-L-phenylalaninamide] was tested. Which IC50 did it give?
Answer: The IC50 was 60 nM.

Question: With `C[C@H]1CNC[C@H](CCc2c(F)cccc2NC(=O)[C@@H](N)[C@H](c2cccc(F)c2)c2cccc(Cl)c2)N1S(=O)(=O)c1ccccc1` [Example 154, (βR)-3-chloro-N-(3-fluoro-2-{2-[(2S,6S)-6-methyl-1-(phenylsulfonyl)piperazin-2-yl]ethyl}phenyl)-β-(3-fluorophenyl)-L-phenylalaninamide] as the compound, how does the IC50 read?
Answer: The IC50 was 65 nM.

Question: `C[C@@H]1CNC[C@H](CCc2c(F)cncc2NC(=O)[C@@H](N)[C@@H](c2ccc(Cl)cc2)C2CCOCC2)N1S(=O)(=O)c1ccccc1` [Example 280, (βR)-4-chloro-N-(5-fluoro-4-{2-[(2S,6R)-6-methyl-1-(phenylsulfonyl)piperazin-2-yl]ethyl}pyridin-3-yl)-β-(tetrahydro-2H-pyran-4-yl)-L-phenylalaninamide] was tested. Which IC50 did it give?
Answer: Its IC50 is 16 nM.

Question: For `COc1ccc([C@H](c2ccc(Cl)cc2)[C@H](N)C(=O)Nc2cccc(F)c2CC[C@H]2CNC[C@@H](C)N2S(=O)(=O)c2ccccc2)cn1` [Example 14, (βS)-4-chloro-N-(3-fluoro-2-{2-[(2S,6R)-6-methyl-1-(phenylsulfonyl)piperazin-2-yl]ethyl}phenyl)-β-(6-methoxypyridin-3-yl)-L-phenylalaninamide], which IC50 is on record?
Answer: Its IC50 is 18 nM.

Question: For `COC(=O)N[C@H](C(=O)Nc1cccc(F)c1CC[C@H]1CNC[C@H](C)N1S(=O)(=O)c1ccccc1)[C@H](c1cccc(F)c1)c1cccc(Cl)c1` [Example 155, (βR)-3-chloro-N-(3-fluoro-2-{2-[(2S,6S)-6-methyl-1-(phenylsulfonyl)piperazin-2-yl]ethyl}phenyl)-β-(3-fluorophenyl)-Nα-(methoxycarbonyl)-L-phenylalaninamide], which IC50 is on record?
Answer: Its IC50 is 67 nM.

Question: With `N[C@H](C(=O)Nc1cccc(F)c1CC[C@@H]1CNCCN1S(=O)(=O)c1ccccc1)C(c1ccc(F)cc1)c1ccc(F)cc1` [Example 31, (S)-2-amino-N-(3-fluoro-2-(2-((R)-1-(phenylsulfonyl)piperazin-2-yl)ethyl)phenyl)-3,3-bis(4-fluorophenyl) propanamide] as the compound, how does the IC50 read?
Answer: Its IC50 is 850 nM.

Question: How did the IC50 turn out when `COC(=O)N[C@H](C(=O)Nc1cccc(F)c1CC[C@H]1CNC[C@@H](C)N1S(=O)(=O)c1ccccc1)[C@@H](c1ccc(F)cc1)C1CCOCC1` [Example 103, (βR)-4-fluoro-N-(3-fluoro-2-{2-[(2S,6R)-6-methyl-1-(phenylsulfonyl)piperazin-2-yl]ethyl}phenyl)-Nα-(methoxycarbonyl)-β-(tetrahydro-2H-pyran-4-yl)-L-phenylalaninamide] was run?
Answer: Its IC50 is 8.6 nM.

Question: Which IC50 does the source give for `C[C@H]1CNC[C@H](CCc2c(F)cccc2NC(=O)[C@@H](N)[C@@H](c2ccc(F)cc2)c2cc(F)cc(F)c2)N1S(=O)(=O)c1ccccc1` [Example 97, (βS)-β-(3,5-difluorophenyl)-4-fluoro-N-(3-fluoro-2-{2-[(2S,6S)-6-methyl-1-(phenylsulfonyl)piperazin-2-yl]ethyl}phenyl)-L-phenylalaninamide] here?
Answer: The IC50 was 25 nM.

Question: Which IC50 does the source give for `COC(=O)N[C@H](C(=O)NC1CCCC1CC[C@H]1CNCCN1S(=O)(=O)c1ccccc1)C(c1ccc(Cl)cc1)C1CCOCC1` (stereo partly drawn) [Example 356, methyl ((1R,2S)-1-(4-chlorophenyl)-3-oxo-3-((2-(2-((S)-1-(phenylsulfonyl)piperazin-2-yl)ethyl)cyclopentyl)amino)-1-(tetrahydro-2H-pyran-4-yl)propan-2-yl)carbamate] here?
Answer: Its IC50 is 28 nM.

Question: `COC(=O)N[C@H](C(=O)Nc1cccc(F)c1CC[C@H]1CNC[C@H](C)N1S(=O)(=O)c1ccc(OC(F)(F)F)cc1)[C@@H](c1ccc(F)cc1)c1cc(F)cc(F)c1` [Example 234, (βS)-β-(3,5-difluorophenyl)-4-fluoro-N-(3-fluoro-2-{2-[(2S,6S)-6-methyl-1-{[4-(trifluoromethoxy)phenyl]sulfonyl}piperazin-2-yl]ethyl}phenyl)-Nα-(methoxycarbonyl)-L-phenylalaninamide] was tested. Which IC50 did it give?
Answer: Its IC50 is 49 nM.

Question: `COC(=O)N[C@H](C(=O)Nc1cccc(F)c1CC[C@H]1CNC[C@H](C)N1S(=O)(=O)c1ccccc1Cl)[C@@H](c1ccc(Cl)cc1)C(C)C` [Example 143, (βR)-4-chloro-N-[2-(2-{(2S,6S)-1-[(2-chlorophenyl)sulfonyl]-6-methylpiperazin-2-yl}ethyl)-3-fluorophenyl]-Nα-(methoxycarbonyl)-β-(1-methylethyl)-L-phenylalaninamide] was tested. Which IC50 did it give?
Answer: The IC50 was 570 nM.

Question: How did the IC50 turn out when `CC(C)[C@H](c1ccc(Cl)cc1)[C@H](N)C(=O)Nc1cncc(F)c1CC[C@H]1CNC[C@H](C)N1S(=O)(=O)c1ccccc1` [Example 126, (βR)-4-chloro-N-(5-fluoro-4-{2-[(2S,6S)-6-methyl-1-(phenylsulfonyl)piperazin-2-yl]ethyl}pyridin-3-yl)-β-(1-methylethyl)-L-phenylalaninamide] was run?
Answer: Its IC50 is 16 nM.

Question: Which IC50 does the source give for `COc1ccc(S(=O)(=O)N2[C@@H](CCc3c(F)cccc3NC(=O)[C@@H](N)[C@H](c3cccc(F)c3)c3cccc(Cl)c3)CNC[C@@H]2C)cc1` [Example 162, (βR)-3-chloro-N-[3-fluoro-2-(2-{(2S,6S)-1-[(4-methoxyphenyl)sulfonyl]-6-methylpiperazin-2-yl}ethyl)phenyl]-β-(3-fluorophenyl)-L-phenylalaninamide] here?
Answer: The IC50 was 22 nM.

Question: With `O=C(C[C@@H](c1ccc(F)cc1)c1cc(F)cc(F)c1)Nc1cncc(F)c1CC[C@H]1CNCCN1S(=O)(=O)N1CCc2ccccc2C1` [Example 322, (3S)-3-(3,5-difluorophenyl)-N-(4-{2-[(2S)-1-(3,4-dihydroisoquinolin-2(1H)-ylsulfonyl)piperazin-2-yl]ethyl}-5-fluoropyridin-3-yl)-3-(4-fluorophenyl)propanamide] as the compound, how does the IC50 read?
Answer: Its IC50 is 530 nM.

Question: How did the IC50 turn out when `Nc1ccc(S(=O)(=O)N2CCNC[C@@H]2CCc2c(F)cncc2NC(=O)C[C@@H](c2ccc(F)cc2)c2cc(F)cc(F)c2)cn1` [Example 307, (3S)-N-[4-(2-{(2S)-1-[(6-aminopyridin-3-yl)sulfonyl]piperazin-2-yl}ethyl)-5-fluoropyridin-3-yl]-3-(3,5-difluorophenyl)-3-(4-fluorophenyl)propanamide] was run?
Answer: The IC50 was 130 nM.
